Publication PMC9281440, “In Vivo Distribution and Therapeutic Efficacy of Radioiodine-Labeled pH-Low Insertion Peptide Variant 3 in a Mouse Model of Breast Cancer” (Molecular Imaging, 2022)
Where two headings read alike, the source gives them in different places. Peptide text beside a SMILES is read from it.

What was measured:
[1] = Micro-SPECT/CT imaging and distribution of 125I-labeled pHLIPs; format: in vivo; details: female, mouse, total radioactivity, 4T1 tumor-bearing nude mice, 3.7 MBq iv, micro-SPECT/CT ROI, mean ± SD, n = 4; for tissue uptake at 4 h: 4 h pi; for tissue uptake at 24 h: 24 h pi; for tissue uptake at 48 h: 48 h pi; for tissue uptake at 1 h: 1 h pi; for tissue uptake at 2 h: 2 h pi
Protocol: (§1) Five-week-old female athymic BALB/c nude mice (Shanghai Slaccas Experiment Animal Corp., Shanghai, China) were used in our study. Mouse xenograft models of MDA-MB-231, 4T1, and SK-BR-3 cells were produced by the subcutaneous injection of 5 × 10^6 cells (suspended in 150 μL PBS) into the right axilla of each mouse. The mice were used in subsequent experiments when tumor diameter reached 0.5-0.9 cm. The study protocol was approved by the institutional review board and by the Experimental Animal Center of Ruijin Hospital affiliated to the School of Medicine of Shanghai Jiao Tong University.
(§2) Three days before micro-SPECT/CT imaging, 300 μL of 1% Kl solution was administered to mice by oral gavage once a day, and 0.1% Kl was added into the drinking water to block thyroid gland activity. Mice-bearing MDA-MB-231, 4T1, or SK-BR-3 tumors were intravenously injected with 3.7 MBq of ^125I-WT-pHLIP or ^125I-Var3-pHLIP. Each group contained four mice. The mice were anesthetized by isoflurane inhalation, placed in the prone position, and scanned using a four-head SPECT/CT system (U-SPECT/CT, MI-Lab, Netherlands) and dedicated multipinhole apertures with a diameter of 1.5 mm at 1, 2, 4, 24, and 48 h after injection of ^125I-labeled peptides. CT images were acquired after static SPECT imaging (10 min/frame). The images were reconstructed using U-SPECT REC software and analyzed using PMOD software version 3.9 (Switzerland). Regions of interest (ROIs) were drawn in the tumors and organs, including the brain, heart, liver, lungs, kidneys, intestine, and bladder, at various time points. The radioactivity per gram (ID%/g) in the ROIs was measured to obtain the dynamic tumor-to-background ratio (TBR, muscle tissue was used as the background) and the in vivo distribution and kinetics of ^125I-WT-pHLIP and ^125I-Var3-pHLIP in the xenograft models of BC.

[2] = tested on: MDA-MB-231 tumor-bearing nude mice; experiment: as above; format: in vivo, mouse; details: MDA-MB-231 xenografts
Protocol: as §1, §2

[3] = In vitro stability of radiolabeled peptides in serum at 37°C; format: in vitro ADME; details: 37°C in serum, radiochemical purity, thin-layer chromatography
Protocol: (§3) WT-pHLIP and Var3-pHLIP were labeled with ^125I for in vivo imaging experiments, and Var3-pHLIP was labeled with ^131I for therapeutic efficacy experiments. Radioactive iodine binds to tyrosine residues in pHLIPs. Peptides were dissolved in 200 μL of 0.02 M PBS (pH 7.4) to reach a concentration of 1 mg/mL and mixed with 10 μL of Na^125I (74 MBq) or 20 μL of Na^131I (925 MBq). Chloramine-T (20 μL, 5 mg/mL) was added to the test tubes and mixed for 70 s at room temperature. The reaction was stopped by adding 200 μL of sodium metabisulfite (5 mg/mL). The peptides were eluted in ethanol through a C18 column equilibrated with 20 mL of 100% ethanol and 20 mL of distilled water. The radioactive purity of ^125I-WT-pHLIP, ^125I-Var3-pHLIP, and ^131I-Var3-pHLIP was determined using thin-layer chromatography. Furthermore, the radiochemical purity of ^125I-WT-pHLIP, ^125I-Var3-pHLIP, and ^131I-Var3-pHLIP was measured, and chemical stability was determined at 24 and 48 h at room temperature (25°C) in PBS and at 37°C in serum.

[4] = In vitro stability of radiolabeled peptides in PBS at room temperature; format: physicochemical; details: room temperature (25°C), PBS buffer, radiochemical purity, thin-layer chromatography
Protocol: as §3

[5] = BALB/c nude, read-out: Distribution, Tumor
[6] = athymic BALB/c nude, bladder, read-out: Distribution, Bladder
[7] = athymic BALB/c nude, brain, read-out: Distribution, Brain
[8] = athymic BALB/c nude, heart, read-out: Distribution, Heart
[9] = athymic BALB/c nude, intestine, read-out: Distribution, Intestine
[10] = athymic BALB/c nude, kidney, read-out: Distribution, Kidney
[11] = athymic BALB/c nude, liver, read-out: Distribution, Liver
[12] = athymic BALB/c nude, lung, read-out: Distribution, Lung
[13] = athymic BALB/c nude, muscle, read-out: Distribution, Muscle

tissue uptake at 4 h [1, 5]: 3.4 ± 0.73 %ID/g | tissue uptake at 24 h [1, 5]: 0.21 ± 0.07 %ID/g | tissue uptake at 48 h [1, 5]: 0.12 ± 0.04 %ID/g | tissue uptake at 1 h [1, 6]: 33.7 ± 21.1 %ID/g | tissue uptake at 2 h [1, 6]: 24.9 ± 10.8 %ID/g | tissue uptake at 4 h [1, 6]: 42.7 ± 17.6 %ID/g | tissue uptake at 24 h [1, 6]: 2.83 ± 1.65 %ID/g | tissue uptake at 48 h [1, 6]: 0.21 ± 0.13 %ID/g | tissue uptake at 1 h [1, 7]: 1.44 ± 0.24 %ID/g | tissue uptake at 2 h [1, 7]: 1.32 ± 0.49 %ID/g | tissue uptake at 4 h [1, 7]: 1.04 ± 0.47 %ID/g | tissue uptake at 24 h [1, 7]: 0.16 ± 0.1 %ID/g | tissue uptake at 48 h [1, 7]: 0.13 ± 0.09 %ID/g | tissue uptake at 1 h [1, 8]: 14.4 ± 2.44 %ID/g | tissue uptake at 2 h [1, 8]: 11 ± 2.39 %ID/g | tissue uptake at 4 h [1, 8]: 8.21 ± 2.03 %ID/g | tissue uptake at 24 h [1, 8]: 0.36 ± 0.16 %ID/g | tissue uptake at 48 h [1, 8]: 0.17 ± 0.05 %ID/g | tissue uptake at 1 h [1, 9]: 3.65 ± 0.64 %ID/g | tissue uptake at 2 h [1, 9]: 3.63 ± 1.19 %ID/g | tissue uptake at 4 h [1, 9]: 3.23 ± 0.7 %ID/g | tissue uptake at 24 h [1, 9]: 0.28 ± 0.15 %ID/g | tissue uptake at 48 h [1, 9]: 0.14 ± 0.11 %ID/g | tissue uptake at 1 h [1, 10]: 7.98 ± 3.12 %ID/g | tissue uptake at 2 h [1, 10]: 7.97 ± 2.23 %ID/g | tissue uptake at 4 h [1, 10]: 4.99 ± 2.04 %ID/g | tissue uptake at 24 h [1, 10]: 0.39 ± 0.3 %ID/g | tissue uptake at 48 h [1, 10]: 0.2 ± 0.13 %ID/g | tissue uptake at 1 h [1, 11]: 14.9 ± 3.55 %ID/g | tissue uptake at 2 h [1, 11]: 13.2 ± 2.28 %ID/g | tissue uptake at 4 h [1, 11]: 12.6 ± 3.61 %ID/g | tissue uptake at 24 h [1, 11]: 0.6 ± 0.16 %ID/g | tissue uptake at 48 h [1, 11]: 0.23 ± 0.04 %ID/g | tissue uptake at 1 h [1, 12]: 13.8 ± 3.09 %ID/g | tissue uptake at 2 h [1, 12]: 11.3 ± 3.09 %ID/g | tissue uptake at 4 h [1, 12]: 9.4 ± 2.45 %ID/g | tissue uptake at 24 h [1, 12]: 0.48 ± 0.15 %ID/g | tissue uptake at 48 h [1, 12]: 0.19 ± 0.1 %ID/g | tissue uptake at 1 h [1, 13]: 1.41 ± 0.61 %ID/g | tissue uptake at 2 h [1, 13]: 1.03 ± 0.19 %ID/g | tissue uptake at 4 h [1, 13]: 0.8 ± 0.26 %ID/g | tissue uptake at 24 h [1, 13]: 0.06 ± 0.04 %ID/g | tissue uptake at 48 h [1, 13]: 0.03 ± 0.03 %ID/g | tissue uptake at 1 h ([1]; athymic BALB/c nude, read-out: Distribution, Tumor): 4.26 ± 1.24 %ID/g | time after injection at which radioactive count in xenografts peaked [2]: 2 h | stability ([3]; 24 h): 83.2% | stability ([3]; 48 h): 82.6% | stability ([4]; 24 h): > 95% | stability ([4]; 48 h): > 90%
Compound: CC(C)C[C@H](NC(=O)[C@H](Cc1ccc(O)c(I)c1)NC(=O)[C@H](C)NC(=O)[C@H](CCCNC(=N)N)NC(=O)[C@H](Cc1c[nH]c2ccccc12)NC(=O)[C@@H]1CCCN1C(=O)[C@H](CC(N)=O)NC(=O)[C@H](CCC(N)=O)NC(=O)[C@H](CC(=O)O)NC(=O)[C@H](CC(=O)O)NC(=O)[C@H](CS)NC(=O)[C@H](C)N)C(=O)N[C@@H](CC(=O)O)C(=O)N[C@@H](CC(C)C)C(=O)N[C@@H](CC(C)C)C(=O)N[C@@H](Cc1ccccc1)C(=O)N1CCC[C@H]1C(=O)N[C@H](C(=O)N[C@@H](CC(=O)O)C(=O)N[C@H](C(=O)N[C@@H](CC(C)C)C(=O)N[C@@H](CC(C)C)C(=O)N[C@@H](CC(C)C)C(=O)N[C@@H](CC(=O)O)C(=O)N[C@@H](CC(C)C)C(=O)N[C@@H](CC(C)C)C(=O)N[C@@H](Cc1c[nH]c2ccccc12)C(=O)N[C@@H](CCCCN)C(=O)O)[C@@H](C)O)[C@@H](C)O [125I-Var3-pHLIP] (HELM PEPTIDE1{A.C.D.D.Q.N.P.W.R.A.[O=C([C@H](Cc1ccc(O)c(I)c1)N[*:1])[*:2]].L.D.L.L.F.P.T.D.T.L.L.L.D.L.L.W.K}$$$$V2.0; N-terminus and C-terminus assumed)
